Laboratory results: ChEMBL document CHEMBL1124051 (J Med Chem, 1988)

Columns and labels:
[1] = Partition coefficient (logP); type: physicochemical; settings: octanol/water
[2] = target: Mu-type opioid receptor (Rattus norvegicus) (UniProt P33535); settings: Brain; Membrane
[3] = target: Mu-type opioid receptor (Rattus norvegicus) (UniProt P33535); settings: Brain; Membrane; remark: listed apart in the source

Sequence of Mu-type opioid receptor (Rattus norvegicus) (P33535 whole entry): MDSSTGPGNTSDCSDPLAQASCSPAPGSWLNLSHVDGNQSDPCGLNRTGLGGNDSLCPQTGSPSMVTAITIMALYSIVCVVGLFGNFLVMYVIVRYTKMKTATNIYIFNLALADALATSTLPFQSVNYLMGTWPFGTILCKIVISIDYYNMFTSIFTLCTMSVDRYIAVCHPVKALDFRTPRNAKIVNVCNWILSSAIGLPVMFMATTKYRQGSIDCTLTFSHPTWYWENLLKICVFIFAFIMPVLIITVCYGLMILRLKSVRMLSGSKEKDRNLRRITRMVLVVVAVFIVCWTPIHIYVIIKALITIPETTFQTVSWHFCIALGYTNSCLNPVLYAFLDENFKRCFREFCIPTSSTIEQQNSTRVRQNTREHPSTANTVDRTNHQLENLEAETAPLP

SMILES	logP ([1]; read-out: logP)	further results
CN1CCC23c4c5cccc4OC2C(=O)CCC3(O)C1C5 (configuration not stated)	-0.23	
CN1CC[C@]23CCCC[C@H]2[C@H]1Cc1ccc(O)cc13 [LEVORPHANOL]	1.03	Kp [2]: 15.6; KT [3]: 20.8
CN1CCC23c4c5cccc4OC2CCCC3C1C5 (configuration not stated)	1.35	
COc1ccc2c3c1O[C@H]1[C@@H](O)C=C[C@H]4[C@@H](C2)N(C)CC[C@@]341 [CODEINE]	0.25	Kp [2]: 11.4; KT [3]: 13.3
CN1CC[C@]23c4c5ccc(O)c4O[C@H]2[C@@H](O)C=C[C@H]3[C@H]1C5		Kp [2]: 12.6; KT [3]: 18.8
CN1CCC23c4c5ccc(O)c4OC2C(O)CCC3C1C5 (configuration not stated)	-0.51	
C=CCN1CCC23c4c5ccc(O)c4OC2C(O)C=CC3C1C5 (configuration not stated)	1.22	
C[C@H]1[C@@H]2Cc3ccc(O)cc3[C@]1(C)CCN2C [METAZOCINE]	0.47	
CC1C2Cc3ccc(O)cc3C1(C)CCN2Cc1ccoc1 (stereo in doubt; form 2)		logP [1]: 2
C[C@H]1[C@H]2Cc3ccc(O)cc3[C@]1(C)CCN2CC1CC1 [CYCLAZOCINE]		logP [1]: 0.97
C=CCN1CCC2(C)c3cc(O)ccc3CC1C2C (stereo in doubt; form 1)		logP [1]: 1.58
CC1C2Cc3ccc(O)cc3C1(C)CCN2Cc1ccco1 (stereo in doubt; form 1)		logP [1]: 2.49
C=CCN1CCC2(C)c3cc(O)ccc3CC1C2C (stereo in doubt; form 2)	1.73	
C=CCN1CCC23CCCCC2C1Cc1ccc(O)cc13 (configuration not stated)	2.14	Kp [2]: 20.8; KT [3]: 21.6
CN1CCC23c4c5ccc(O)c4OC2C(=O)CCC3(O)C1C5 (configuration not stated)	-0.42	
CN1CCC23c4c5cccc4OC2C(O)C=CC3C1C5 (configuration not stated)	0.3	
CC1C2Cc3ccc(O)cc3C1(C)CCN2Cc1ccco1 (stereo in doubt; form 2)	2.68	
CC1C2Cc3ccc(O)cc3C1(C)CCN2Cc1ccoc1 (stereo in doubt; form 1)	2.25	
CN1CCC23c4c5cccc4OC2C(=O)CCC3C1C5 (configuration not stated)	0.4	
C=CCN1CCC23c4c5cccc4OC2C(O)CCC3C1C5 (configuration not stated)	0.87	
